Literature values as cited in patent US20250325495A1, “SILK NANOPARTICLE SYNTHESIS: TUNING SIZE, DISPERSITY, AND SURFACE CHEMISTRY FOR DRUG DELIVERY” (Trustees of Tufts College, priority 2022, published 2025).

Test system: GBM cell lines
Conditions: compared with temozolomide

SMILES: COc1cccc2c1C(=O)c1c(O)c3c(c(O)c1C2=O)C[C@@](O)(C(=O)CO)C[C@@H]3O[C@H]1C[C@H](N)[C@H](O)[C@H](C)O1 [doxorubicin]
- cytotoxic effects: superior cytotoxic effects
